No end group written: not given here.

For data set [1], the system named is platelet-rich green fluorescent fibrin clot. The experiment in a line: In vitro thrombolytic capacity in PPFC on platelet-rich fluorescent fibrin clots. The format is cell-based. Conditions: flow over clot. As for the experimental part:
Glass microscope slides were incubated with collagen suspension in a circular region for 30 min (similar to slide preparation for PPFC-based binding studies) and then gently washed with 1×PBS. PRP with AlexaFluor 488-conjugated fibrinogen (6% v/v of 1.5 mg/mL, green fluorescent) was briefly mixed with α-thrombin and 0.5 M CaCl2), to final concentrations of 5 nM and […] respectively, to initiate clot formation and the mixture was pipetted (100 μl volume) onto the collagen-coated surface region. The clot was allowed to incubate for 1 h and then gently washed with 1×PBS to remove loosely bound components. The slide thus formed with platelet-rich green fluorescent fibrin clot on its surface, was sealed into the parallel plate flow chamber (PPFC) system, to be imaged under the inverted fluorescence microscope. The objective was focused on an area at the edge of the clot such that the initial field of view enabled observation of the green fluorescence of the fibrin clot throughout the whole area of view, and the clot lysis could then be observed as the loss of this fluorescence. […] In this experimental set-up, sPLA2-triggered degradation of clot-bound PMIN vesicles and resultant SK release was expected to convert the plasminogen to plasmin and thereby lyse the fibrin of the clot.

For data set [2], the system named is FeCl3-induced carotid artery thrombus. The experiment in a line: Targeted thrombolysis in vivo (delay of vessel occlusion, FeCl3 carotid thrombosis). On the set-up: species or system mouse. The following applies: ~400 IU SK where loaded, injected ~5 min after thrombus induction. The text has this: For targeted thrombolytic capacity assessment, Rhodamine 6G solution was first injected into the right jugular vein of the mouse to render direct fluorescent labeling of circulating platelets and the FeCl3-induced thrombus was created in the carotid as before, such that the formation of the thrombus and extent of vessel occlusion can be observed directly by monitoring the fluorescent platelets in the artery with intra-vital microscopy. For this, the carotid artery was thrombosed as before and […] of Rhodamine 6G solution was injected into the right jugular vein that results in direct fluorescent labeling of circulating platelets. This allows for imaging platelet-rich thrombus formation (and lysis) in real time. […] The effect of these various treatments on delaying the thrombus growth over time was imaged by intravital microscopy, with images recorded for 10 s every minute for the first 10 min and then 10 s every other minute until the end of the experiment. […] The end points of the experiment were: 1) when blood flow had ceased for >30 s due to vessel occlusion, or 2) if occlusion was not observed in 30 min after SK (free or vesicle-encapsulated) administration. […]

For the substance streptokinase [free SK], the “time to clot lysis (loss of green fluorescence)” value in data set [1] is recorded as at most 15 min. The “delay in vessel occlusion” value in data set [2] is “keeps the artery significantly open due to persistent thrombolysis”.

Take TRYLRIHPQSWVHQI-NH2 [VBP]: the “activation of platelets by aggregometry” value with platelets is “inability of both VBP and CBP to activate platelets”.
